Numbering of substitutions follows the chain as printed.
What was measured:
[1] = target: T1, ZZZ3 ZZ domain D824A (Homo sapiens, UniProt Q8IYH5, D824A); experiment: 1H,15N HSQC NMR titration of ZZZ3 ZZ D824A mutant with histone peptides; assay type: binding; conditions: measured by NMR (1H,15N HSQC titration); 0.1 mM 15N-labeled protein; 298 K
T1 construct: GST (N, cleaved yes); made in house; host or cells: E. coli BL21 (DE3) RIL
T1 sequence (Q8IYH5 818-877 D824A limits assumed): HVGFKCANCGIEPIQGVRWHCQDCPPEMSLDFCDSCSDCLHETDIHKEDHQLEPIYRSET
Experimental: (§1) In total, 0.1 mM uniformly ^15N-labeled WT or mutated ZZZ3-ZZ was used in NMR titrations. Binding was characterized by monitoring chemical shift changes in the proteins induced by histone peptides (synthesized by SynPeptide). Dissociation constant (Kd) was determined by applying PCA to the ^1H,^15N HSQC titration spectra in TREND[30]. Each binding isotherm was fitted using the following equation: pbound=∣∣PC1∣∣=L+P+Kd-L+P+Kd^2-4[P][L]/2[P] where [L] is the concentration of the histone peptide, [P] is the concentration of ZZ, pbound is the fraction of protein bound to a ligand, and PC1 is the normalized principal component, obtained by TREND, that indicates the change in the population of the bound state. The errors of the Kd value are the fitting uncertainties from nonlinear least-squares fits in Kaleidagraph.

[2] = target: T2, ZZZ3 ZZ domain (a.a. 800–903) (Homo sapiens, UniProt Q8IYH5); experiment: Microscale thermophoresis (MST) displacement binding assay; conditions: displacement of 80 nM fluorescein-labeled H3 (1–12) from 5 μM ZZ by unlabeled peptide; 20 mM Tris–HCl pH 7.0, 150 mM NaCl, 3 mM DTT; H3 triplicates, H3K4ac duplicates
T2 construct: The samples containing 1.0 µM ZZZ3 ZZ (aa 800–903); GST (N, cleaved yes); made in house; host or cells: E. coli BL21 (DE3) RIL
T2 sequence (Q8IYH5 800-903): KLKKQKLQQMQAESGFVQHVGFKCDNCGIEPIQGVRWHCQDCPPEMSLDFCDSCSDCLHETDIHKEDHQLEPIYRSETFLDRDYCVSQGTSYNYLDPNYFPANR
Experimental: The MST experiments were performed using a Monolith NT.115 instrument (NanoTemper) as described previously. All experiments were performed with the purified ZZ domain (a.a. 800-903) in a buffer containing 20 mM Tris-HCl (pH 7.0), 150 mM NaCl, and 3 mM DTT. The final concentration of the C-terminal fluorescein-labeled histone H3 peptide (1-12, KE BIOCHEM) was kept at 80 nM. Dissociation constants for the interaction between ZZ with unlabeled peptides H3 (1-12) and H3K4ac (1-12) were measured using a displacement assay in which increasing amounts of unlabeled peptides were added into a preformed ZZ:H3-FAM complex prepared by supplementing 5 μM ZZ into each sample. The measurements were performed at 50% LED and 40% MST power with 3-s laser on time and 22 s off time. For all measurements, samples were loaded into premium capillaries and 1400-1700 counts were obtained for the fluorescence intensity. The Kd and IC50 values were determined with the MO.Affinity Analysis software (NanoTemper Technologies GmbH), using two independent MST measurements. […] The Kd value is the dissociation constant of labeled H3 peptide determined in the direct binding experiment described above. […]

[3] = target: T3, ZZZ3 ZZ domain (aa 800–903), WT (Homo sapiens, UniProt Q8IYH5); experiment: Tryptophan fluorescence binding of histone peptides to WT ZZZ3 ZZ domain; conditions: for Kd: 1.0 µM ZZZ3 ZZ (aa 800–903), 25 °C, 20 mM Tris–HCl pH 7.2, 150 mM NaCl, 1 mM DTT, mean ± SD of three experiments
T3 construct: The samples containing 1.0 µM ZZZ3 ZZ (aa 800–903); GST (N, cleaved yes); made in house; host or cells: E. coli BL21 (DE3) RIL
T3 sequence (Q8IYH5 800-903): T2 sequence (Q8IYH5 800-903)
Experimental: Spectra were recorded at 25 °C on a Fluoromax-3 spectrofluorometer (HORIBA). The samples containing 1.0 µM ZZZ3 ZZ (aa 800–903) and progressively increasing concentrations of the histone peptide were excited at 295 nm. Experiments were performed in buffer containing 20 mM Tris–HCl (pH 7.2), 150 mM NaCl, and 1 mM DTT, with the exception of experiments shown in Supplementary Fig. 3b, which were performed in 100 mM NaCl buffer. Emission spectra were recorded over a range of wavelengths between 330 and 360 nm with a 0.5-nm step size and a 1-s integration time and averaged over three scans. The Kd values were determined using a nonlinear least-squares analysis and the equation: ΔI=ΔImaxL+P+Kd-L+P+Kd^2-4[P][L]/2[P] where [L] is the concentration of the histone peptide, [P] is the concentration of ZZZ3 ZZ domain, ΔI is the observed change of signal intensity, and ΔImax is the difference in signal intensity of the free and bound states of the ZZ domain. The Kd value was averaged over three separate experiments, with error calculated as the standard deviation between the runs.

[4] = target: T4, ZZZ3 ZZ domain D848A (Homo sapiens, UniProt Q8IYH5, D848A); experiment: 1H,15N HSQC NMR titration of ZZZ3 ZZ D848A mutant with histone peptides; assay type: binding; conditions: measured by NMR (1H,15N HSQC titration); 0.1 mM 15N-labeled protein; 298 K
T4 construct: GST (N, cleaved yes); made in house; host or cells: E. coli BL21 (DE3) RIL
T4 sequence (Q8IYH5 818-877 D848A limits assumed): T1 sequence (Q8IYH5 818-877 D824A limits assumed) with A7D, D31A
Experimental: as §1

[5] = target: T5, ZZZ3 ZZ domain (Homo sapiens, UniProt Q8IYH5); experiment: Binding of non-H3-like peptide to ZZZ3 ZZ domain (Supplementary Fig. 2i); conditions: N-terminal Ala1 added to a non-H3-like peptide
T5 construct: made in house; host or cells: E. coli BL21 (DE3) RIL
T5 sequence (Q8IYH5 818-877 limits assumed): T1 sequence (Q8IYH5 818-877 D824A limits assumed) with A7D

[6] = target: T6, ATAC complex (Homo sapiens, UniProt Q8IYH5); experiment: In vitro HAT assay of purified ATAC complex with histone peptides or mononucleosomes; assay type: biochemical; conditions: 1 μg peptide, 0.1 mM acetyl-CoA, 37 °C, western blot
T6 construct: expressed in transfected cells; nuclear extract, M2-agarose, eluted with triple-FLAG peptide
Experimental: Nuclear extracts were prepared from stable cells using a standard protocol. Briefly, approximately 2 mg of nuclear extract was incubated with 25 µl of M2-agarose beads (Sigma) overnight at 4 °C. The beads were washed four times with high-salt wash buffer (10 mM HEPES, pH 7.9, 25% glycerol, 1.5 mM MgCl2, 300 mM KCl, and 0.1% Triton X-100), followed by two washes with low-salt wash buffer (10 mM HEPES, pH 7.9, 25% glycerol, 1.5 mM MgCl2, 100 mM KCl, and 0.1% Triton X-100). Elution was achieved by two consecutive incubations of the beads with 0.5 mg/ml triple-FLAG peptide (Sigma) in 200 µl of low-salt wash buffer. All buffers contained phenylmethylsulfonyl fluoride and protease inhibitor cocktail (Roche).
Purified complexes were incubated for indicated times at 37 °C with peptides (1 μg) or mononucleosomes (10 μg) and 0.1 mM acetyl-CoA in HAT reaction buffer (50 mM Tris, pH 8.0, 0.1 mM EDTA, 10% glycerol, 1 mM PMSF, and 1 mM DTT) in a total volume of 50 μL. Reactions were quenched by flash-freezing in liquid nitrogen and then analyzed by SDS-PAGE and western blot. Uncropped western blots are shown in Supplementary Figure 11.

Compound | Kd, ZZZ3 ZZ domain D824A [1] | Kd [2] | Kd [3] | HAT activity of the ATAC complex on the peptide substrate [6] | also measured
CC(=O)NCCCC[C@H](NC(=O)[C@@H](NC(=O)[C@H](CCCNC(=N)N)NC(=O)[C@H](C)N)[C@@H](C)O)C(=O)N[C@@H](CCC(N)=O)C(=O)N[C@H](C(=O)N[C@@H](C)C(=O)N[C@@H](CCCNC(=N)N)C(=O)N[C@@H](CCCCN)C(=O)N[C@@H](CO)C(=O)N[C@H](C(=O)NCC(=O)O)[C@@H](C)O)[C@@H](C)O [H3K4ac] | No binding | 5.5 µM | 8.2 µM |  | Fold enhancement of ZZ association over the unmodified H3 peptide ([3]; Kd 8.2 μM versus 29 μM): ~ 3 fold
C[C@H](N)C(=O)N[C@@H](CCCNC(=N)N)C(=O)N[C@H](C(=O)N[C@@H](CCCC[N+](C)(C)C)C(=O)N[C@@H](CCC(N)=O)C(=O)N[C@H](C(=O)N[C@@H](C)C(=O)N[C@@H](CCCNC(=N)N)C(=O)N[C@@H](CCCCN)C(=O)N[C@@H](CO)C(=O)N[C@H](C(=O)NCC(=O)O)[C@@H](C)O)[C@@H](C)O)[C@@H](C)O [H3K4me3] |  |  |  |  | Kd ([3]; SD): 22 ± 6 µM
C[C@H](N)C(=O)N[C@@H](CCCNC(=N)N)C(=O)N[C@H](C(=O)N[C@@H](CCCCN)C(=O)N[C@@H](CCC(N)=O)C(=O)N[C@H](C(=O)N[C@@H](C)C(=O)N[C@@H](CCCNC(=N)N)C(=O)N[C@@H](CCCCN)C(=O)N[C@@H](CO)C(=O)N[C@H](C(=O)NCC(=O)O)[C@@H](C)O)[C@@H](C)O)[C@@H](C)O [H3] | No binding | 18 µM | 29 µM |  | Kd, ZZZ3 ZZ domain D848A [4]: No binding
AGSGSG [non-H3-like peptide with an added N-terminal Ala1] |  |  |  |  | Binding to the ZZZ3 ZZ domain [5]: insufficient to bind
H3 (3–33): biotinylated histone H3 peptide lacking the first two amino acids, HAT substrate |  |  |  | abolishes the HAT activity | 
Lys4-acetylated H3 peptide: Lys4-acetylated H3 (1-22) peptide used as HAT substrate |  |  |  | better substrate | 

From PMC6138639, “The ZZ-type zinc finger of ZZZ3 modulates the ATAC complex-mediated histone acetylation and gene activation” (Nature Communications, 2018)
